Source: patent US20120095036A1, “NOVEL SUBSTITUTED INDAZOLE AND AZA-INDAZOLE DERIVATIVES AS GAMMA SECRETASE MODULATORS” (priority 2009, published 2012)

How the values were obtained:
Assay type in all cases: cell-based
Aβtotal [1] = assay: Method 1: Aβtotal sandwich ELISA on media of SKNBE2 cells carrying APP 695 wild type; conditions: Homo sapiens, SKNBE2 cells APP 695 wild type, 18 hours
Outline: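 SKNBE2 cells expressing wild-type APP695 treated with compound for 18 h in Ultraculture; secreted Aβtotal measured by 6E10-capture/biotinylated 4G8 sandwich ELISA with fluorogenic peroxidase read-out. IC50 from 4-parameter fit, top/bottom fixed at 100/0, Hill slope 1; toxicity checked by WST-1.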

Aβ42 = assay: Method 2: Aβ42 Alphalisa on supernatant of SKNBE2 cells carrying APP 695 wild type; conditions: Homo sapiens, SKNBE2 cells APP 695 wild type, overnight
Outline: (§1)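 SKNBE2 cells expressing wild-type APP695 (10^4/well) were incubated overnight at 37 °C with compound at several concentrations. Secreted Aβ42 (C-terminal/N-terminal antibody pair) and Aβtotal (N-terminal/4G8 pair) were measured by AlphaLISA in the supernatant. IC50 values came from 4-parameter fits of percent of untreated control.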

Aβtotal [2] = assay: Method 2: Aβtotal Alphalisa on supernatant of SKNBE2 cells carrying APP 695 wild type; conditions: Homo sapiens, SKNBE2 cells APP 695 wild type, overnight
Outline: as §1

| Structure (SMILES) | IC50 (Aβtotal [1]) [nM] | IC50 (Aβ42) [nM] | IC50 (Aβtotal [2]) [nM] |
| --- | --- | --- | --- |
| COc1cccc(-n2cc3cccc(Nc4ccc(-n5cnc(C)c5)c(OC)c4)c3n2)c1 [Compound 1, N-[3-methoxy-4-(4-methyl-1H-imidazol-1-yl)phenyl]-2-(3-methoxyphenyl)-2H-indazol-7-amine] | > 3000 | 81 | 8320 |
| COc1cc(Nc2cccc3cn(CC(F)(F)F)nc23)ccc1-c1cnc(C)o1 [Compound 6, N-[3-methoxy-4-(2-methyl-5-oxazolyl)phenyl]-2-(2,2,2-trifluoroethyl)-2H-indazol-7-amine] | > 3000 | 162 | 3980 |
| COc1cc(Nc2cccc3cn(Cc4ccc(F)cc4)nc23)ccc1-n1cnc(C)c1 [Compound 15, 2-[(4-fluorophenyl)methyl]-N-[3-methoxy-4-(4-methyl-1H-imidazol-1-yl)phenyl]-2H-indazol-7-amine] | > 3000 | 14 | 6610 |
| COc1cc(Nc2cccc3cn(CC4CC4)nc23)ccc1-c1cnc(C)o1.Cl [Compound 38, 2-(cyclopropylmethyl)-N-[3-methoxy-4-(2-methyl-5-oxazolyl)phenyl]-2H-indazol-7-amine HCl] | > 3000 | 234 | 4680 |
| COc1cccc(-n2nc3c(Nc4ccc(-c5cnc(C)o5)c(OC)c4)nccc3c2C)c1 [Compound 42, N-[3-methoxy-4-(2-methyl-5-oxazolyl)phenyl]-2-(3-methoxyphenyl)-3-methyl-2H-pyrazolo[3,4-c]pyridin-7-amine] | > 3000 | 120 | 4360 |

Other lines, results leading:

| IC50 (Aβtotal [1]) [nM] | IC50 (Aβ42) [nM] | IC50 (Aβtotal [2]) [nM] | Structure (SMILES) |
| --- | --- | --- | --- |
| > 1000 | 7 | 6460 | COc1cccc(-n2nc3c(Nc4ccc(-n5cnc(C)c5)c(OC)c4)cccc3c2C)c1 [Compound 2, N-[3-methoxy-4-(4-methyl-1H-imidazol-1-yl)phenyl]-2-(3-methoxyphenyl)-3-methyl-2H-indazol-7-amine] |
| > 1000 | 15 | > 10000 | COc1cccc(-n2nc3c(Nc4ccc(-c5cnc(C)o5)cc4)cccc3c2C)c1 [Compound 29, 2-(3-methoxyphenyl)-3-methyl-N-[4-(2-methyl-5-oxazolyl)phenyl]-2H-indazol-7-amine] |
